The numbers were not newly measured in US20050209250A1, “Therapeutic combinations of atypical antipsychotics with corticotropin releasing factor antagonists” (Pfizer Inc, priority 2004, published 2005), which cites them from elsewhere.

In general, half-life refers to the time needed for the level to fall by half in the phase considered.

Assay in data set [1]: not given
This is another data set of the same source.

For `Cl.O.O=C1Cc2cc(CCN3CCN(c4nsc5ccccc45)CC3)c(Cl)cc2N1` [ziprasidone, 5-[2-[4-(1,2-benzisothiazol-3-yl)piperazin-1-yl]ethyl]-6-chloroindolin-2-one hydrochloride hydrate], the half-life (in vivo) is 6 to 7 h. Besides, under “taken with food”, the Oral bioavailability result is “approximately 60%”. Besides, the protein binding entry in data set [1] is “extensive”.
